Like-named read-outs stand apart in the source and are kept apart here. Blank lines part the entries; values can stand above or below the compound they belong to.
What was measured:
[1] = test system: HEK-293T cells; assay: DD-IL15 induction, human IL15 ELISA (Table 80); type: cell-based; conditions: DD-IL15 (OT-IL15-002, ecDHFR-IL15) in HEK-293T, TMP 24 hrs
Procedure: To test ligand dependent IL15 production, 1 million HEK-293T cells were plated in a 6-well plate in growth media containing DMEM and 10% FBS and incubated overnight at 37° C. at 5% CO2. Cells were then transfected with 100 ng of OT-IL15-001(constitutive) or OT-IL15-002 (ecDHFR-IL15) using Lipofectamine 2000 and incubated for 48 hrs. […] Media was collected and the undiluted samples or samples diluted 4, 16, 256, 1024, 4096 or 16384-fold were tested using human IL15 ELISA. The stabilization ratio was defined as fold change in IL15 expression with ligand treatment compared to treatment with DMSO (i.e. in the absence of ligand) with the same construct.

[2] = test system: T cells; conditions: human, 160 μM
Procedure: The percentage of divided cells within the CD4 and the CD8 populations of T cells was measured using FACS.

[3] = in vivo; conditions: Balb/C nu/nu, mouse, plasma
[4] = test system: T cells; assay: TMP dose and exposure time on membrane bound IL15 expression (Table 89); type: cell-based; conditions: T-cell
Procedure: For this purpose, T cells were activated with CD3/CD28 beads at 3:1 bead to T cell ratio in 24-well plates for 24 hrs. Lentivirus was added to wells. After 24 hrs, fresh media was added every 2-3 days to expand cells while maintaining cells at 0.5-1×10^6/ml. On day 11 of expansion.

[5] = test system: NK-92 cells; assay: NK-92 activation markers with IL15 (Tables 82, 84); type: cell-based; conditions: for pSTAT5 (15 mins) / pSTAT5 (60 mins) / CD69 / CXCR4 / Granzyme B / IFNgamma / Perforin: NK-92 cells, fold change; for pSTAT5 (15 mins) / pSTAT5 (60 mins): FACS; for CD69 / CXCR4 / Granzyme B / IFNgamma / Perforin: activation marker by FACS
Procedure: (§1) The dependency of the NK-92 cells on cytokines for activation was tested. […] The cells were cultured for 18 hours in the presence of IL12 (10 ng/ml) or varying concentrations of IL15 (100 ng/ml, 20 ng/ml, 4 ng/ml, 0.8 ng/ml, 0.16 ng/ml, 0.032 ng/ml, 0.0064 ng/ml and 0.00128 ng/ml). NK-92 cell activation in response to IL15 and IL12 treatment was evaluated by FACS analysis using a panel of markers whose increased expression is associated with NK activation. These include NKG2D, CD71, CD69; chemokine receptors such as CCR5, CXCR4, and CXCR3, Perforin, Granzyme B and Interferon gamma (IFNg). Prior to FACS analysis for IFNg, cells were cultured for 4 hours with Brefeldin A. NK cells respond to external stimuli such as cytokines in their environment through the phosphorylation of proteins JAK/STAT, ERK, and p38/MAPK pathways which are important for cell activation, signaling and differentiation pathways. The phosphorylation of AKT, STAT3 and STAT5 in response to cytokine addition was measured by FACS. Since phosphorylation events are transient NK-92 cells were treated with the cytokines for 15 or 60 minutes, prior to the analysis.
as §1, with “of” for “of IL12 (10 ng/ml) or”, “IL15” for “IL15 and IL12”, “Perform,” for “Perforin,”

[6] = test system: NK-92 cells; assay: Cytokine dependent proliferation of NK-92, Jurkat and SupT1 cells; type: cell-based; conditions: 3 days
Procedure: The dependency of immune cells on cytokines for proliferation was tested in NK-92 cells and T cell lines Jurkat cells and SupT1 cells. Cells were seeded at 40,000 per well and cultured in the presence of IL2 or IL15 for 3 days.

Reduction in the percentage of divided cells [2]: 70-90% | TMP concentration in the plasma at early time points (100 mg/kg): 50 to 100 µM | TMP concentration in the plasma at early time points (300 mg/kg): 100 to 150 µM | TMP levels in the plasma 4 hours after dosing (all doses): Virtually no TMP levels were detected | concentration at 0.083 h ([3]; 30 mg/kg): 25.7 µM | concentration at 0.25 h ([3]; 30 mg/kg): 19.6 µM | concentration at 0.5 h ([3]; 30 mg/kg): 9.84 µM | concentration at 1 h ([3]; 30 mg/kg): 2.55 µM | concentration at 2 h ([3]; 30 mg/kg): 1.19 µM | concentration at 4 h ([3]; 30 mg/kg): 0.16 µM | concentration at 8 h ([3]; 30 mg/kg): 0.04 µM | concentration at 0.083 h ([3]; 100 mg/kg): 81.5 µM | concentration at 0.25 h ([3]; 100 mg/kg): 78.1 µM | concentration at 0.5 h ([3]; 100 mg/kg): 58.8 µM | concentration at 1 h ([3]; 100 mg/kg): 27.6 µM | concentration at 2 h ([3]; 100 mg/kg): 2.97 µM | concentration at 8 h ([3]; 100 mg/kg): 0.56 µM | concentration at 24 h ([3]; 100 mg/kg): 0.01 µM | concentration at 0.083 h ([3]; 300 mg/kg): 117 µM | concentration at 0.25 h ([3]; 300 mg/kg): 137 µM | concentration at 0.5 h ([3]; 300 mg/kg): 128 µM | concentration at 1 h ([3]; 300 mg/kg): 80 µM | concentration at 2 h ([3]; 300 mg/kg): 32.6 µM | concentration at 4 h ([3]; 300 mg/kg): 1.03 µM | concentration at 8 h ([3]; 300 mg/kg): 0.3 µM | concentration at 24 h ([3]; 300 mg/kg): 0.01 µM | EC50 ([4]; 6 h, read-out: EC50, uM (% IL15 + IL15Ra+)): 0.021 µM | EC50 ([4]; 6 h, read-out: EC50, uM (total IL15 MFI)): 0.03 µM | EC90 ([4]; 6 h, read-out: EC90, uM (% IL15 + IL15Ra+)): 0.81 µM | EC90 ([4]; 6 h, read-out: EC90, uM (total IL15 MFI)): 0.88 µM | EC50 ([4]; 24 h, read-out: EC50, uM (% IL15 + IL15Ra+)): 0.035 µM | EC50 ([4]; 24 h, read-out: EC50, uM (total IL15 MFI)): 0.063 µM | EC90 ([4]; 24 h, read-out: EC90, uM (% IL15 + IL15Ra+)): 0.255 µM | EC90 ([4]; 24 h, read-out: EC90, uM (total IL15 MFI)): 0.75 µM | EC50 ([4]; read-out: EC50, uM (% IL15 + IL15Ra+)): 11.5 µM | EC50 ([4]; read-out: EC50, uM (total IL15 MFI)): 11.1 µM | EC90 ([4]; read-out: EC90, uM (% IL15 + IL15Ra+)): 59.6 µM | EC90 ([4]; read-out: EC90, uM (total IL15 MFI)): 66.9 µM
Compound: COc1cc(Cc2cnc(N)nc2N)cc(OC)c1OC [TMP, Trimethoprim]
IL15 ELISA reading, 10 μM TMP ([1]; media dilution 1-fold): 0.820 | IL15 ELISA reading, 10 μM TMP ([1]; media dilution 4-fold): 0.287 | IL15 ELISA reading, 10 μM TMP ([1]; media dilution 16-fold): 0.116 | IL15 ELISA reading, 10 μM TMP ([1]; media dilution 64-fold): 0.073 | IL15 ELISA reading, 10 μM TMP ([1]; media dilution 256-fold): 0.057 | IL15 ELISA reading, 10 μM TMP ([1]; media dilution 1024-fold): 0.048 | IL15 ELISA reading, 10 μM TMP ([1]; media dilution 4096-fold): 0.049 | IL15 ELISA reading, 10 μM TMP ([1]; media dilution 16384-fold): 0.049

Compound: IL15: cytokine added to NK-92 cells
NK-92 activation marker expression ([5]; IL15 0.00128-100 ng/ml, 18 h): increase in the expression of CD69, CXCR4, Perforin, Granzyme B, and IFNg | pSTAT5 (15 mins) ([5]; IL15 0.00128 ng/ml): 0.99 | pSTAT5 (60 mins) ([5]; IL15 0.00128 ng/ml): 1.04 | CD69 ([5]; IL15 0.00128 ng/ml): 1.07 | CXCR4 ([5]; IL15 0.00128 ng/ml): 1.15 | Granzyme B ([5]; IL15 0.00128 ng/ml): 0.88 | IFNgamma ([5]; IL15 0.00128 ng/ml): 1.19 | Perforin ([5]; IL15 0.00128 ng/ml): 0.85 | pSTAT5 (15 mins) ([5]; IL15 0.0064 ng/ml): 1.03 | pSTAT5 (60 mins) ([5]; IL15 0.0064 ng/ml): 1.26 | CD69 ([5]; IL15 0.0064 ng/ml): 1.11 | CXCR4 ([5]; IL15 0.0064 ng/ml): 1.19 | Granzyme B ([5]; IL15 0.0064 ng/ml): 0.78 | IFNgamma ([5]; IL15 0.0064 ng/ml): 0.85 | Perforin ([5]; IL15 0.0064 ng/ml): 0.79 | pSTAT5 (15 mins) ([5]; IL15 0.032 ng/ml): 1.23 | pSTAT5 (60 mins) ([5]; IL15 0.032 ng/ml): 1.67 | CD69 ([5]; IL15 0.032 ng/ml): 1.05 | CXCR4 ([5]; IL15 0.032 ng/ml): 1.14 | Granzyme B ([5]; IL15 0.032 ng/ml): 0.92 | IFNgamma ([5]; IL15 0.032 ng/ml): 0.95 | Perforin ([5]; IL15 0.032 ng/ml): 0.92 | pSTAT5 (15 mins) ([5]; IL15 0.8 ng/ml): 1.76 | pSTAT5 (60 mins) ([5]; IL15 0.8 ng/ml): 2.17 | CD69 ([5]; IL15 0.8 ng/ml): 1.18 | CXCR4 ([5]; IL15 0.8 ng/ml): 2.10 | Granzyme B ([5]; IL15 0.8 ng/ml): 1.09 | IFNgamma ([5]; IL15 0.8 ng/ml): 1.92 | Perforin ([5]; IL15 0.8 ng/ml): 1.16 | pSTAT5 (15 mins) ([5]; IL15 4 ng/ml): 1.81 | pSTAT5 (60 mins) ([5]; IL15 4 ng/ml): 2.35 | CD69 ([5]; IL15 4 ng/ml): 1.59 | CXCR4 ([5]; IL15 4 ng/ml): 3.03 | Granzyme B ([5]; IL15 4 ng/ml): 1.16 | IFNgamma ([5]; IL15 4 ng/ml): 2.76 | Perforin ([5]; IL15 4 ng/ml): 1.28 | pSTAT5 (15 mins) ([5]; IL15 20 ng/ml): 1.96 | pSTAT5 (60 mins) ([5]; IL15 20 ng/ml): 2.35 | CD69 ([5]; IL15 20 ng/ml): 2.10 | CXCR4 ([5]; IL15 20 ng/ml): 3.62 | Granzyme B ([5]; IL15 20 ng/ml): 1.40 | IFNgamma ([5]; IL15 20 ng/ml): 5.55 | Perforin ([5]; IL15 20 ng/ml): 1.57 | pSTAT5 (15 mins) ([5]; IL15 100 ng/ml): 1.98 | pSTAT5 (60 mins) ([5]; IL15 100 ng/ml): 2.34 | CD69 ([5]; IL15 100 ng/ml): 1.91 | CXCR4 ([5]; IL15 100 ng/ml): 3.87 | Granzyme B ([5]; IL15 100 ng/ml): 1.48 | IFNgamma ([5]; IL15 100 ng/ml): 9.00 | Perforin ([5]; IL15 100 ng/ml): 1.67 | NK-92 cell numbers [6]: increased cell numbers

Reference: patent publication US12104178B2, “DHFR tunable protein regulation” (Obsidian Therapeutics, Inc., priority 2017, dated 2024)
